Entries after “also recorded” stand apart in the source; their conditions may differ.
Legend:
[1] = test system: Gαs in murine spleen cells; assay: Gαs expression in murine spleen cells exposed to OT (previous findings in this lab); format: cell-based; details: both sexes
[2] = test system: Gαs mRNA and Gαq mRNA in PBMCs; assay: G-protein mRNA (Gαs and Gαq) in PBMCs exposed to oxytocin; format: cell-based, human
Method: (§1) Both Gαs and Gαq mRNA were measured after PBMCs were incubated with vehicle (untreated condition) and after co-culture with hormone. For some subjects, the PBMC quantity yielded insufficient mRNA for PCR analysis. Gαs PCR was completed on 10 ASD girls, 9 control girls, 10 ASD boys, and 9 control boys. Gαq PCR was completed on 10 ASD girls, 8 control girls, 10 ASD boys, and 9 control boys.
(§2) Samples were taken from the patients, as described in Example 1, and mRNA was isolated from cells exposed to oxytocin and analyzed for amount of mRNA expressing Gαs and Gαq.
PBMC isolation, hormone treatment and cell culture. PBMCs were isolated from heparinized blood using Histopaque 1077 (Sigma-Aldrich, St. Louis, Mo.). Briefly, 5 ml of blood was diluted 1:1 in PBS and carefully layered onto 3 ml of Histopaque 1077 in a 50 ml conical centrifuge tube. Tubes were centrifuged at 400 g for 30 min at RT. The buffy coat was removed from the tube and washed three times in complete RPMI without phenol red. Cell counts and viability were determined using Trypan blue. Cell viability was >95%. Resultant PBMC's were suspended in complete RPMI with 10% charcoal stripped, dilapidated fetal calf serum (FCS) (Invitrogen, Carlsbad, Calif.) and added in 1 ml aliquots to 12 well plate with vehicle and oxytocin (10 ^−7M, 10 ^−8M, and 10^−9M) in RPMI+10% charcoal stripped, dilapidated FCS. Cells were incubated overnight (18-24 hr) before wells were harvested and rinsed. Cell suspensions were centrifuged at 500 g for 10 min at RT, and supernatant was aspirated. Buffer RLT Plus from the RNeasy Mini Plus Kit (QIAgen, Valencia, Calif.) was added to the cell pellets before vortexing to lyse cells. Samples were stored at −80° C. before RNA purification and isolation.
RNA isolation and quantitation. Samples were thawed, vortexed, and placed in QIAshredder columns. Columns were centrifuged for 2 min at 15000 g. The homogenized lysate was transferred to a gDNA Eliminator spin column and centrifuged for 30 sec at 9000 g. Equal volumes of 70% ethanol were added to the eluent. The mixture was transferred to RNeasy spin columns and centrifuged for 15 sec at 9000 g. Columns were washed with Buffer RW1 and the Buffer RPE, centrifuging for 15 sec at 9000 g, each time discarding the eluent. Buffer RPE was again added and columns centrifuged for 2 min at 9000 g to dry the column. Columns were then centrifuged for 1 min at 15000 g. RNA was eluted with the addition of Nuclease-free water and spun for 1 min at 9000 g. RNA was examined by spectrophotometry and quantitated using the Ribogreen assay (Invitrogen, Carlsbad, Calif.). Samples were diluted 1:200. Standards of 0, 20, 100, 500, and 1000 ng/ml were made from E. coli ribosomal RNA in TE buffer. Ribogreen reagent (1:200) was added to samples and standards, and samples were read on a Bio-Tek FLx800 fluorescent plate reader. RNA was diluted in nuclease-free water to a final concentration of 150 ng/ml cDNA.
cDNA construction and one-step real-time RT-PCR. Reverse transcription was performed using the SuperScript II Reverse Transcription Kit (Invitrogen, Carlsbad, Calif.). First, any residual DNA was digested away with DNase I for 15 min, with DNase activity subsequently quenched with 25 mM EDTA at 65° C. for 15 min. 10 mM dNTP and 0.5 ug/ml oligo (dT) were added to DNase-treated samples at 65° C. for 5 min. […]

[3] = test system: Gαs and Gαq protein in PBMCs; assay: G-protein expression (Gαs and Gαq) in PBMCs exposed to oxytocin (immunoblot); format: cell-based, human
Method: Membrane preparation for membrane-associated proteins. For protein studies, PBMC's were manipulated at 4° C., as previously described in Example 4. PBMC's were individually homogenized (1:30, wt/vol) in ice-cold 0.25 M sucrose and 50 mM Tris-HCL, (pH 7.6) in a Dounce homogenizer, centrifuged twice at 800×g for 5 min before centrifugation of the supernatants at 30,000×g for 60 min. The pellet was resuspended in assay buffer and used directly in the binding assay. Protein concentration was determined by BCA protein assay kit (Pierce, Rockford, Ill.) using bovine serum albumin (BSA) as a standard.
Immunoblot analysis for membrane-associated proteins. Total membrane proteins were prepared as for receptor assays above. Samples were electrophoresed in 12% Tris-HCl resolving gels and transferred to 0.45 μm nitrocellulose membranes (Bio-Rad, Hercules, Calif.) by electroblotting. […] After three washes in TBST, membranes were incubated for 1 h in TBST and 1% non fat dry milk with horseradish peroxidase conjugated 2° antibodies (Jackson Immunoresearch, West Grove, Pa.). Bands were visualized by exposure of the membranes to autoradiographic film (MidSci, St. Louis, Mo.). The membranes were then stripped with Restore™ Western Blot Stripping Buffer (Pierce, Rockford Ill.) for 30 min at 37° C. and reprobed for actin protein as an internal control. The bands were quantified using a densitometer (GE Healthcare, Piscataway, N.J.).
Specific G protein antibodies. Specific Gαs and Gαq/11 antibodies made in rabbit without cross reactivity to other G proteins were used at a 1:500 dilution and originated from Santa Cruz Biotechnology (Santa Cruz, Calif.).

male university students = details: intra-nasally; cited from earlier work
Gαq mRNA in PBMCs = Gαq mRNA in PBMCs co-cultured with OT; format: cell-based, human
Method: as §1, §2
(§3) PBMC isolation, hormone treatment and cell culture. PBMCs were isolated from heparinized blood using Histopaque 1077 (Sigma-Aldrich, St. Louis, Mo.). Briefly, 5 ml of blood was diluted 1:1 in PBS and carefully layered onto 3 ml of Histopaque 1077 in a 50 ml conical centrifuge tube. Tubes were centrifuged at 400 g for 30 min at RT. The buffy coat was removed from the tube and washed three times in complete RPMI without phenol red. Cell counts and viability were determined using Trypan blue. Cell viability was >95%. […]
(§4) RNA isolation and quantitation. […] RNA was examined by spectrophotometry and quantitated using the Ribogreen assay (Invitrogen, Carlsbad, Calif.). […] Ribogreen reagent (1:200) was added to samples and standards, and samples were read on a Bio-Tek FLx800 fluorescent plate reader. […]

Gαs mRNA in PBMCs = Gαs mRNA in PBMCs co-cultured with OT; format: cell-based, human
Method: as §1, §2, §3, §4

adults with ASD = details: cited from earlier work
[4] = children with ASD versus controls

With `CC[C@H](C)[C@@H]1NC(=O)[C@H](Cc2ccc(O)cc2)NC(=O)[C@@H](N)CSSC[C@@H](C(=O)N2CCC[C@H]2C(=O)N[C@@H](CC(C)C)C(=O)NCC(N)=O)NC(=O)[C@H](CC(N)=O)NC(=O)[C@H](CCC(N)=O)NC1=O` [OT, Oxytocin] the “Gαs expression with exposure to OT” value [1] was “c. Previous findings in this lab had found sex differences in Gαs in murine spleen cells as well as induction of Gαs expression in both sexes with exposure to OT,”, the “mRNA pattern after exposure to oxytocin” value ([2]; autistic males, compared with control females before exposure) was “more feminine pattern” and the “mRNA levels after exposure to oxytocin” value ([2]; children with autism) was “not seen”. For the same compound, the “mRNA levels after exposure to oxytocin” value ([2]; females with autism) was “upward trend”, the “mRNA levels after exposure to oxytocin” value ([2]; males with autism) was “not observed” and the “mRNA levels after exposure to oxytocin” value ([2]; non-autistic patients) was “went up”. The “protein expression after exposure to oxytocin” value (from here on “protein expression”) ([3]; children with autism) was “not seen”, the “protein expression” value ([3]; females with autism) was “upward trend” and the “protein expression” value ([3]; males with autism) was “not observed”. The “protein expression” value ([3]; non-autistic patients) was “went up”, the “trust and prosocial behavior” value (male university students) was “might increase trust and prosocial behavior” and the “difference in Gαq mRNA expression between ASD and control PBMCs upon exposure to OT” value (Gαq mRNA in PBMCs; [4]) was “no longer significant”. For the same compound, the “sex differences in Gαq mRNA expression with OT” value (Gαq mRNA in PBMCs; girls versus boys) was “not augmented”, the “difference in Gαs mRNA expression between ASD and control PBMCs upon exposure to OT” value (Gαs mRNA in PBMCs; [4]) was “no longer observed; also recorded: did not have the significantly increased Gαs mRNA” and the “sex differences in Gαs expression with OT exposure” value (Gαs mRNA in PBMCs; girls versus boys, any group) was “not augmented”. The affective speech comprehension (adults with ASD; OT infusion) was “improved” and the “severity and number of different types of repetitive behaviors” value (adults with ASD; intravenous OT infusion) was “decreased”.
